Data published in PubChem BioAssay AID330 (DTP/NCI, 2004).
“And” between values parts separate entries of the source, which are not always exact repeats. Equal entries are not always repeated. Inconclusive results and toxic doses are left out. How the source made its calls: active means survival T/C of 150% or more; inactive means T/C below 125% in these data.

Tested on: P388 leukemia ip, CD2F1 mice, survival T/C
Assay: NCI In Vivo Anticancer Drug Screen. Data for tumor model P388 Leukemia (intraperitoneal) in CD2F1 (CDF1) mice
Conditions: endpoint: median survival time, higher = longer survival
Method in brief: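 Mice carrying the transplanted tumor received test compound or vehicle. Survival was recorded in each group, and the value is the treated-group measurement divided by that of the vehicle-treated control group.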

[1] = dose: 30.0 mg/kg/injection, schedule: Q01DX005 (ip), vehicle: saline
[2] = dose: 60.0 mg/kg/injection, schedule: Q01DX005 (ip), vehicle: saline
[3] = dose: 120.0 mg/kg/injection, schedule: Q01DX005 (ip), vehicle: saline
[4] = dose: 50.0 mg/kg/injection, schedule: Q01DX009 (ip), vehicle: Klucel (hydroxypropylcellulose) (HPC)
[5] = dose: 100.0 mg/kg/injection, schedule: Q01DX009 (ip), vehicle: Klucel (hydroxypropylcellulose) (HPC)
[6] = dose: 200.0 mg/kg/injection, schedule: Q01DX009 (ip), vehicle: Klucel (hydroxypropylcellulose) (HPC)
[7] = dose: 50.0 mg/kg/injection, schedule: Q01DX009 (ip), vehicle: saline
[8] = dose: 100.0 mg/kg/injection, schedule: Q01DX009 (ip), vehicle: saline
[9] = dose: 50.0 mg/kg/injection, schedule: Q01DX009 (ip), vehicle: saline with Tween-80
[10] = dose: 100.0 mg/kg/injection, schedule: Q01DX009 (ip), vehicle: saline with Tween-80
[11] = dose: 200.0 mg/kg/injection, schedule: Q01DX009 (ip), vehicle: saline with Tween-80
[12] = dose: 60.0 mg/kg/injection, schedule: Q01DX005 (ip), vehicle: Klucel (hydroxypropylcellulose) (HPC)
[13] = dose: 120.0 mg/kg/injection, schedule: Q01DX005 (ip), vehicle: Klucel (hydroxypropylcellulose) (HPC)
[14] = dose: 25.0 mg/kg/injection, schedule: Q01DX009 (ip), vehicle: saline with Tween-80
[15] = dose: 50.0 mg/kg/injection, schedule: Q01DX005 (ip), vehicle: Klucel (hydroxypropylcellulose) (HPC)
[16] = dose: 100.0 mg/kg/injection, schedule: Q01DX005 (ip), vehicle: Klucel (hydroxypropylcellulose) (HPC)
[17] = dose: 200.0 mg/kg/injection, schedule: Q01DX005 (ip), vehicle: Klucel (hydroxypropylcellulose) (HPC)

Measured: T/C

C=CCN(CC=C)C1CCOC(OC)C1O (stereo unspecified)
inactive: [1] 100 % of control and 112 % of control | [2] 113 % of control [middle of 4 runs] | [3] 119 % of control [middle of 4 runs] | dose: 240.0 mg/kg/injection, schedule: Q01DX005 (ip), vehicle: saline 99 % of control and 119 % of control and 123 % of control

COc1ccc(OC)c(C(N)=O)c1
inactive: [4] 102 % of control | [5] 102 % of control | [6] 100 % of control

COc1ccc([N+](=O)[O-])cc1NS(=O)(=O)c1ccc(NC(C)=O)cc1
inactive: [4] 100 % of control | [5] 99 % of control | [6] 99 % of control

CNCCN1CCC(Cc2ccccc2)CC1
inactive: [7] 100 % of control | [8] 100 % of control

CC(C)(C)c1cc2c(c(C(C)(C)C)c1)OP(F)(c1ccccc1)(c1ccccc1)N2
inactive: [9] 89 % of control | [10] 95 % of control | [11] 98 % of control

O=C1CSC(c2c(F)cccc2Cl)N1c1nncs1 (stereo unspecified)
inactive: [12] 102 % of control and 104 % of control | [13] 105 % of control

NCCCCC(C(=O)NC(Cc1ccc(O)cc1)C(=O)NC(CO)C(=O)OCc1ccc([N+](=O)[O-])cc1)N(C(=O)OCc1ccccc1)C(=O)OCc1ccccc1 (stereo unspecified)
inactive: dose: 50.0 mg/kg/injection, schedule: Q01DX005 (ip), vehicle: saline with Tween-80 101 % of control | dose: 100.0 mg/kg/injection, schedule: Q01DX005 (ip), vehicle: saline with Tween-80 100 % of control | dose: 200.0 mg/kg/injection, schedule: Q01DX005 (ip), vehicle: saline with Tween-80 97 % of control

O=c1[nH]ncn1-c1ccccc1
inactive: dose: 12.5 mg/kg/injection, schedule: Q01DX009 (ip), vehicle: Klucel (hydroxypropylcellulose) (HPC) 100 % of control | dose: 25.0 mg/kg/injection, schedule: Q01DX009 (ip), vehicle: Klucel (hydroxypropylcellulose) (HPC) 109 % of control | [4] 98 % of control | [5] 106 % of control

CN=C(N)N/N=C/c1ccc2c(c1)Cc1ccccc1-2
inactive: dose: 6.25 mg/kg/injection, schedule: Q04DX002 (ip), vehicle: saline with Tween-80 106 % of control and 122 % of control | dose: 12.5 mg/kg/injection, schedule: Q04DX002 (ip), vehicle: saline with Tween-80 109 % of control | dose: 25.0 mg/kg/injection, schedule: Q04DX002 (ip), vehicle: saline with Tween-80 107 % of control | dose: 50.0 mg/kg/injection, schedule: Q04DX002 (ip), vehicle: saline with Tween-80 119 % of control and 124 % of control | dose: 100.0 mg/kg/injection, schedule: Q04DX002 (ip), vehicle: saline with Tween-80 118 % of control

S=C1Nc2ccccc2C2CC=NN12 (stereo unspecified)
inactive: dose: 12.5 mg/kg/injection, schedule: Q01DX009 (ip), vehicle: saline with Tween-80 91 % of control | [14] 112 % of control | [9] 88 % of control and 96 % of control | [11] 86 % of control

CCCNC(=S)NN1C2CSC1CS2
inactive: [7] 89 % of control | [8] 99 % of control

CCc1nc2nc(C)cc(C)n2n1
inactive: [14] 100 % of control | [9] 97 % of control | [10] 103 % of control

CC(=O)OC1CCC2(C)C(=CCC3C2CCC2(C)C3CC3ON=C(C)C32)C1 (stereo unspecified)
inactive: dose: 12.5 mg/kg/injection, schedule: Q01DX005 (ip), vehicle: Klucel (hydroxypropylcellulose) (HPC) 101 % of control | dose: 25.0 mg/kg/injection, schedule: Q01DX005 (ip), vehicle: Klucel (hydroxypropylcellulose) (HPC) 99 % of control | [15] 98 % of control | [16] 86 % of control | [17] 86 % of control

COc1cc2c(cc1OC)C1CC(=O)C(CCCCCCC3CN4CCc5cc(OC)c(OC)cc5C4CC3=O)CN1CC2 (stereo unspecified)
inactive: [4] 91 % of control | [5] 92 % of control | [6] 99 % of control

COc1cc(C)c(O)c(C/C=C(\C)CC2=C[C@@]3(C)CCC[C@@]3(C)[C@]3(CC(O)C(C)(C)O3)O2)c1 (stereo partly specified)
inactive: dose: 20.0 mg/kg/injection, schedule: Q01DX005 (ip), vehicle: saline with Tween-80 98 % of control | dose: 40.0 mg/kg/injection, schedule: Q01DX005 (ip), vehicle: saline with Tween-80 100 % of control | dose: 80.0 mg/kg/injection, schedule: Q01DX005 (ip), vehicle: saline with Tween-80 119 % of control

CCCCCC[N+]1([O-])CC[N+]([O-])(CCCCCC)CC1 (stereo unspecified)
inactive: dose: 15.0 mg/kg/injection, schedule: Q01DX005 (ip), vehicle: saline 101 % of control | [1] 102 % of control | [2] 102 % of control and 103 % of control

CC(C(=O)NC(=O)O)S(=O)(=O)O (stereo unspecified)
inactive: dose: 12.5 mg/kg/injection, schedule: Q01DX001 (ip), vehicle: saline with Tween-80 101 % of control | dose: 25.0 mg/kg/injection, schedule: Q01DX001 (ip), vehicle: saline with Tween-80 103 % of control

Cc1ccccc1N=c1c2cnn(C)c2ncn1-c1ccccc1C
inactive: [15] 96 % of control | [16] 96 % of control | [17] 93 % of control

c1ccc(N2CN(c3ccccc3)C2)cc1
inactive: [12] 88 % of control | [13] 86 % of control | dose: 240.0 mg/kg/injection, schedule: Q01DX005 (ip), vehicle: Klucel (hydroxypropylcellulose) (HPC) 88 % of control

COC(=O)c1cc(-c2cccnc2)[nH]c(=O)c1C#N
inactive: [2] 104 % of control | [3] 100 % of control

COc1c2occc2c(N=Cc2ccncc2)c2ccc(=O)oc12
inactive: dose: 100.0 mg/kg/injection, schedule: Q01DX001 (ip), vehicle: saline with Tween-80 88 % of control | dose: 200.0 mg/kg/injection, schedule: Q01DX001 (ip), vehicle: saline with Tween-80 90 % of control | dose: 400.0 mg/kg/injection, schedule: Q01DX001 (ip), vehicle: saline with Tween-80 96 % of control

COC(=O)C(CSC(c1ccccc1)(c1ccccc1)c1ccccc1)NC(=O)CC(NC(=O)OCc1ccccc1)C(N)=O (stereo unspecified)
inactive: dose: 12.5 mg/kg/injection, schedule: Q01DX009 (ip), vehicle: distilled water + Tween-80 106 % of control | dose: 25.0 mg/kg/injection, schedule: Q01DX009 (ip), vehicle: distilled water + Tween-80 93 % of control | dose: 50.0 mg/kg/injection, schedule: Q01DX009 (ip), vehicle: distilled water + Tween-80 103 % of control | dose: 100.0 mg/kg/injection, schedule: Q01DX009 (ip), vehicle: distilled water + Tween-80 94 % of control | dose: 200.0 mg/kg/injection, schedule: Q01DX009 (ip), vehicle: distilled water + Tween-80 102 % of control

C[CH2][Ge]([CH2]C)[O][Ge]([CH2]C)[CH2]C.c1cc[c]([Ge]([c]2ccccc2)[c]2ccccc2)cc1.c1cc[c]([Ge]([c]2ccccc2)[c]2ccccc2)cc1
inactive: dose: 60.0 mg/kg/injection, schedule: Q01DX005 (ip), vehicle: saline with Tween-80 88 % of control | dose: 120.0 mg/kg/injection, schedule: Q01DX005 (ip), vehicle: saline with Tween-80 98 % of control | dose: 240.0 mg/kg/injection, schedule: Q01DX005 (ip), vehicle: saline with Tween-80 98 % of control

C1CSCCSCCCSCCSC1
inactive: [14] 91 % of control | [9] 106 % of control and 90 % of control | [10] 91 % of control and 92 % of control | [11] 96 % of control | dose: 400.0 mg/kg/injection, schedule: Q01DX009 (ip), vehicle: saline with Tween-80 91 % of control

c1cnc2c(NC3CCCCC3)ncnc2n1
inactive: [4] 100 % of control | [5] 98 % of control | [6] 97 % of control

O=C1NC(=O)c2ccc3c4ccc5c6c(ccc(c7ccc1c2c73)c46)c(=O)n1c2ccccc2nc51
inactive: dose: 90.0 mg/kg/injection, schedule: Q01DX001 (ip), vehicle: Klucel (hydroxypropylcellulose) (HPC) 94 % of control | dose: 180.0 mg/kg/injection, schedule: Q01DX001 (ip), vehicle: Klucel (hydroxypropylcellulose) (HPC) 94 % of control | dose: 360.0 mg/kg/injection, schedule: Q01DX001 (ip), vehicle: Klucel (hydroxypropylcellulose) (HPC) 92 % of control

C=C(Cl)C(=NC(C)(C)C)Nc1c(Cl)cccc1Cl
inactive: [15] 98 % of control and 95 % of control | [16] 100 % of control | [17] 100 % of control and 90 % of control

NC(=O)C#CC(N)=O
inactive: dose: 0.11 mg/kg/injection, schedule: Q01DX009 (ip), vehicle: Klucel (hydroxypropylcellulose) (HPC) 100 % of control and 103 % of control | dose: 0.22 mg/kg/injection, schedule: Q01DX009 (ip), vehicle: Klucel (hydroxypropylcellulose) (HPC) 100 % of control and 119 % of control | dose: 0.45 mg/kg/injection, schedule: Q01DX009 (ip), vehicle: Klucel (hydroxypropylcellulose) (HPC) 103 % of control and 119 % of control | dose: 0.9 mg/kg/injection, schedule: Q01DX009 (ip), vehicle: Klucel (hydroxypropylcellulose) (HPC) 100 % of control and 114 % of control
